Measured values as given in patent US20100184695A1, “VASCULAR ENDOTHELIAL CELL-BINDING PEPTIDE” (priority 2007, published 2010).
No end group written: not given here.

Key:
HUVEC cells [1] = assay: Uptake of fluorescently labeled peptide-PEG conjugate into endothelial cell (quantitative analysis); assay type: cell-based, human; conditions: fluorescein-labeled peptide-multiarm PEG conjugate, peptide 10 μM, 8 hours, 37° C.; fluorescence recovered from cells, added conjugate = 100%
Description: (§1) PEG having four maleimide groups per molecule (Multiarm PEG, SUNBRIGHT PTE-200MA, manufactured by NOF Corporation) was dissolved in DMSO at the concentration of 2 mM, 20 μl of this solution, and an equivalent amount (20 μl) of a 10 mM fluorescein-labeled peptide solution in DMSO were mixed to react them at room temperature for 2 hours. After 60 μl of PBS was added to dilute the mixture to the total amount of 100 μl, desalting treatment was performed using a spin column (Bio-Rad, Micro Bio-Spin Column 30) equilibrated by washing with 500 μl of PBS three times in advance, and an unbound peptide was separated and removed to obtain a peptide-multiarm PEG conjugate.
A 96-well microplate (glass bottom plate, Nunc No. 164588) was treated with 100 μl of a 1% acidic collagen solution for 10 minutes in advance, and washed with 120 μl of PBS once, and 1×10^5/ml of 100 μl of HUVEC cells were seeded, and cultured under the condition of 37° C. and 5% CO2 for 2 days. Upon use, cells were washed with 150 μl of a medium (EBM-2 medium containing a 2% fetal bovine serum (Cambrex Bio Science, containing a growth factor)) once, and 50 μl of the same medium, and 50 μl of a solution obtained by diluting a peptide-multiarm PEG conjugate (SEQ ID Nos. 12, 13, 16 (partial sequence of SEQ ID No. 14), and 77) prepared in Example 3 (1) with a medium to the peptide concentration of 20 μM were sequentially added, followed by culturing under the condition of 37° C. and 5% CO2 for 8 hours (the peptide concentration at reaction with cells was 10 μM). Cells after culturing were washed with 150 μl of a HBSS(+) buffer three times to remove an unbound peptide-multiarm PEG conjugate, and 100 μl of HBSS(+) containing 1% SDS to extract a peptide bound to, or taken into cells. The extract was transferred to another 96-well microplate (black plate), and fluorescence at an excitation wavelength of 490 nm and a detection wavelength of 530 nm was measured using a fluorophotometer. Letting the fluorescent intensity of each of the added peptide-multiarm PEG conjugate to be 100%, the amount (%) of uptake of the peptide into cells was calculated from the fluorescent amount recovered from cells.

HUVEC cells [2] = assay: Uptake of fluorescently labeled peptide-BSA conjugate into endothelial cell (quantitative analysis); assay type: cell-based, human; conditions: fluorescein-labeled peptide-BSA conjugate, peptide 10 μM, 8 hours, 37° C.; fluorescence recovered from cells
Description: (§2) In 1 ml of a 50 mM sodium bicarbonate solution was dissolved 20 mg of BSA, to prepare a 0.3 mM solution. To the total amount (1 ml) of this solution was added 20 μl of a 250 mM solution (final concentration: 5 mM) of NHS-PEO12-maleimide (catalog No. 22112, manufactured by Pierce) which is a divalent crosslinking reagent having a PEG chain spacer, followed by a reaction at room temperature for 1 hour. After the reaction, 100 μl of the solution was desalted using a spin column (Bio-Rad, Micro Bio-Spin Column 30) equilibrated by washing with 500 μl of a 0.1 M sodium phosphate buffer (pH 7.0) three times in advance. An unreacted crosslinking reagent was separated and removed. After desalting, 50 μl of the solution was mixed with an equivalent amount of a 0.1 M sodium phosphate buffer (pH 7.0) to dilute, and to 100 μl of the resulting solution was added 10 μl of a fluorescein-labeled peptide solution in DMSO, followed by a reaction at room temperature for 1 hour. The total amount of the solution after the reaction was desalted using a spin column (Bio-Rad, Micro Bio-Spin Column 30) equilibrated by washing with 500 μl of PBS three times in advance, thereby, an unbound peptide was separated and removed, to obtain a peptide-BSA conjugate solution.
On a 96-well microplate (Corning No. 3595) were seeded 100 μl of 1×10^5/ml HUVEC cells, and cells were cultured under the condition of 37° C. and 5% CO2 for 2 days. Upon use, cells were washed with 150 μl of a medium (EBM-2 medium containing a 2% fetal bovine serum (Cambrex Bio Science, containing a growth factor)) once, and 50 μl of the same medium, and 50 μl of a solution obtained by diluting the peptide-BSA conjugate (SEQ ID Nos. 12, 13, 16, and 77) prepared in Example 3 (2) with a medium to the peptide concentration of 20 μM were sequentially added, followed by culturing under the condition of 37° C. and 5% CO2 for 8 hours (the peptide concentration at reaction with cells was 10 μM). Recovery of the peptide-BSA conjugate bound to, or taken into cells after the reaction, and fluorescence quantitation were performed in the same method as in Example 3.

HUVEC cells [3] = assay: Uptake of fluorescently labeled peptide-BSA conjugate (image analysis); assay type: cell-based, human; conditions: peptide 10 μM, 8 hours
Description: as §2
A 96-well microplate (glass bottom plate, Nunc No. 164588) was treated with 100 μl of a 1% acidic collagen solution for 10 minutes in advance, and washed with 120 μl of PBS once, and 100 μl of 1×10^5/ml of HUVEC cells were seeded, and cultured under the condition of 37° C. and 5% CO2 for 2 days. Upon use, cells were washed with 150 μl of a medium (EBM-2 medium containing a 2% fetal bovine serum (Cambrex Bio Science, containing a growth factor)) once, and 50 μl of the same medium, and 50 μl of a solution obtained by diluting the peptide-BSA conjugate (SEQ ID Nos. 12, 13, 16, and 77) prepared in Example 3 (2) with a medium to the peptide concentration of 20 μM were sequentially added, followed by culturing under the condition of 37° C. and 5% CO2 for 8 hours (the peptide concentration at reaction with cells was 10 μM). Cells after the reaction were observed using a confocal laser microscope (Olympus FV1000).

HeLa = assay: as above; assay type: cell-based; conditions: HeLa comparative cell; compared with uptake into a HUVEC
HUVEC cells [4] = assay: Uptake of fluorescently labeled peptide-multiarm PEG conjugate into endothelial cell (image analysis scoring); assay type: cell-based, human; set-up: key: Score 0: No fluorescent luminescent spot in a cell is recognized.; Score 1: Faint fluorescent luminescent spots are recognized in a cell.; Score 2: Fluorescent luminescent spots clearer than in score 1 are recognized in a cell.; Score 3: Many luminescent spots further brighter than in score 2 are seen in a cell; conditions: fluorescein-labeled multiarm PEG-peptide conjugate, peptide 16 μM, 8 hours
Description: as §1
A 96-well microplate (glass bottom plate, Nunc No. 164588) was treated with 100 μl of a 1% acidic collagen solution for 10 minutes in advance, and washed with 120 μl of PBS once, and 100 μl of 1×10^5/ml of HUVEC cells were seeded, and cultured under the condition of 37° C. and 5% CO2 for 2 days. Upon use, cells were washed with 150 μl of a medium (EBM-2 medium containing a 2% fetal bovine serum (Cambrex Bio Science, containing a growth factor)) once, and 50 μl of the same medium, and 50 μl of a solution obtained by diluting the multiarm PEG-peptide conjugate (a peptide of SEQ ID No. 12 and a partial peptide thereof (SEQ ID Nos. 17, 18, and 19), a peptide of SEQ ID No. 13 and a partial peptide thereof (SEQ ID Nos. 15, 20, and 21), and a random sequence peptide (SEQ ID No. 77)) prepared in Example 3 (1) with a medium to the peptide concentration of 32 μM were sequentially added, followed by culturing under the condition of 37° C. and 5% CO2 for 8 hours (the peptide concentration at reaction with cells was 16 μM). The cell after the reaction was observed using a confocal laser microscope (Olympus FV1000). The amount of fluorescent luminescent spots derived from the peptide recognized in a cell was scored as follows.
Score 0: No fluorescent luminescent spot in a cell is recognized. Score 1: Faint fluorescent luminescent spots are recognized in a cell. Score 2: Fluorescent luminescent spots clearer than in score 1 are recognized in a cell. Score 3: Many luminescent spots further brighter than in score 2 are seen in a cell.

[5] = tested on: normal human umbilical vein endothelial cell; assay: Uptake of peptide-modified liposome encapsulating doxorubicin into HUVEC (quantification analysis); assay type: cell-based; conditions: doxorubicin-encapsulated peptide-modified liposome, 6 hours
Description: Hydrogenated soybean phosphatidyl choline (10 mg), cholesterol (3.4 mg),
distearoylphosphatidylethanolamine-polyethylene glycol 5000 (3.5 mg), and distearoylphosphatidylethanolamine-polyethylene glycol 5000-maleimide (3.1 mg) were dissolved in chloroform, and a solvent in a flask was removed using an evaporator to form a thin film. To this was added 1.7 mL of a 250 mM aqueous ammonium sulfate solution, followed by heating at 65° C. The resulting vesicle was adjusted in a particle size with an extruder using, subsequently, porous membranes of the pore sizes of 1.0 μm, 0.4 μm, and 0.2 μm. Into the prepared liposome having the particle diameter of about 200 nm was encapsulated doxorubicin by a remote loading method. After unencapsulated doxorubicin was removed with a column, peptides (SEQ ID Nos. 12, 13, 76 (partial sequence of SEQ ID No. 7), and 78) were added, respectively, at the ⅕ amount based on maleimide, and a liposome into which various peptides are introduced was prepared. Unreacted maleimide was inactivated by adding the 3-fold amount of 2-mercaptoethanol.
Regarding a 50 to 60% confluent normal human umbilical vein endothelial cell cultured in a 24-well plate, a medium was exchanged, and a doxorubicin-encapsulated peptide-modified liposome solution was added in the half amount of a medium. After 6 hours, cells were washed with a phosphate buffer, treated with trypsin, and cells were collected by a centrifugation procedure. To a cell pellet was added 50 μL of 10% Triton X-100 to dissolve cells and the doxorubicin-encapsulated peptide-modified liposome, 350 μL of isopropanol with 10% 0.75 M HCl added thereto was added, and this was allowed to stand overnight at −20° C. After a centrifugation procedure, the supernatant was analyzed with an ODS column, and doxorubicin taken in the cell was quantitated.

TLPSPLALLTVH [Sequence-12, peptide presented by phage PhD clone1-14]
Recovery of Peptide-PEG conjugate (%) (HUVEC cells [1]): 0.211% | Recovery of Peptide-BSA conjugate (%) (HUVEC cells [2]): 0.127% | Uptake of peptide-BSA conjugate into cell (confocal laser microscopic image) (HUVEC cells [3]): many bright luminescent spots were observed in a cell | Uptake of peptide-BSA conjugate into cell (confocal laser microscopic image) (HeLa): an extremely small amount of peptides were observed in a cell | Intracellular Fluorescence (Score) (HUVEC cells [4]): 3 | Amount of uptake of doxorubicin compared with random sequence (SEQ ID No. 78) liposome and liposome with no peptide [5]: remarkably increased

GTQLFLIH [Sequence-16]
Recovery of Peptide-PEG conjugate (%) (HUVEC cells [1]): 0.047% | Recovery of Peptide-BSA conjugate (%) (HUVEC cells [2]): 0.227% | Uptake of peptide-BSA conjugate into cell (confocal laser microscopic image) (HUVEC cells [3]): many bright luminescent spots were observed in a cell | Uptake of peptide-BSA conjugate into cell (confocal laser microscopic image) (HeLa): an extremely small amount of peptides were observed in a cell

SEQ ID No. 76: partial sequence of SEQ ID No. 7; sequence not printed in the text (VIPILSIYTA; Designed peptide acting as a vascular endothelial cell binding peptide)
Amount of uptake of doxorubicin compared with random sequence (SEQ ID No. 78) liposome and liposome with no peptide [5]: remarkably increased

EYDLSTAGGAAA [Sequence-77, reference compound]
Recovery of Peptide-PEG conjugate (%) (HUVEC cells [1]): 0.020% | Recovery of Peptide-BSA conjugate (%) (HUVEC cells [2]): 0.029% | Uptake of peptide-BSA conjugate into cell (confocal laser microscopic image) (HUVEC cells [3]): no peptide in, a cell was observed | Intracellular Fluorescence (Score) (HUVEC cells [4]): 0

PLALLTVH [Sequence-19]
Intracellular Fluorescence (Score) (HUVEC cells [4]): 1

TVPFLPLY [Sequence-21]
Intracellular Fluorescence (Score) (HUVEC cells [4]): 1

PSPLALLT [Sequence-18]
Intracellular Fluorescence (Score) (HUVEC cells [4]): 1

SLTVPFLPLYVP [Sequence-13, peptide presented by phage PhD clone3-30]
Recovery of Peptide-PEG conjugate (%) (HUVEC cells [1]): 0.122% | Recovery of Peptide-BSA conjugate (%) (HUVEC cells [2]): 0.116% | Uptake of peptide-BSA conjugate into cell (confocal laser microscopic image) (HUVEC cells [3]): many bright luminescent spots were observed in a cell | Uptake of peptide-BSA conjugate into cell (confocal laser microscopic image) (HeLa): an extremely small amount of peptides were observed in a cell | Intracellular Fluorescence (Score) (HUVEC cells [4]): 2 | Amount of uptake of doxorubicin compared with introduction of SEQ ID Nos. 12 and 76 [5]: higher | Amount of uptake of doxorubicin compared with random sequence (SEQ ID No. 78) liposome and liposome with no peptide [5]: remarkably increased | Amount of uptake of doxorubicin relative to no peptide introduction [5]: about 3 fold

SLTVPFLP [Sequence-20]
Intracellular Fluorescence (Score) (HUVEC cells [4]): 1

TLPSPLAL [Sequence-17]
Intracellular Fluorescence (Score) (HUVEC cells [4]): 1

PFLPLYVP [Sequence-15]
Intracellular Fluorescence (Score) (HUVEC cells [4]): 2
